According to patent US10854312B2, “Selective peptide antagonists” (BIONIZ, LLC, priority 2013, dated 2020):
“Also recorded” adds a separate entry of the source. No end group written: not given here.

Key:
[1] = target: mouse IL-3 (Mus musculus, UniProt P01586); test: PT-18β proliferation assay (3H-thymidine), non-γc cytokine IL-3; assay type: cell-based; settings: 1 nM mouse IL-3, 15 μM BNZ132-1
[2] = tested on: IL-2/IL-15-induced proliferation of ex vivo human T-lymphocytes; assay type: cell-based
Procedure: FIG. 7A, and FIG. 7B present effective inhibition of a combined function of target γc-cytokines by BNZ132-1. […] Human Peripheral T cells were prepared as described in the methodology section. Four hundred thousand cells (in 200 μl culture) were incubated with the cytokines and BNZ132-1 at the indicated concentrations for 24 h, and cellular proliferation was determined by the […] using the WST-1 reagent (Clontech). The Y-axis represents the OD450 values. The p values; 1 nM cytokine combination—No inhibition vs. anti-IL-2; 0.33, No inhibition vs. anti-IL-15; 0.13, No inhibition vs. anti IL-2+IL-15; 0.003. No inhibition vs. BNZ132-1; 0.021. 0.1 nM cytokine combination—No inhibition vs. anti-IL-2; 0.046, No inhibition vs. anti-IL-15; 0.057, No inhibition vs. anti IL-2+IL-15; 0.001, No inhibition vs. anti IL-2+15; 0.001, No inhibition vs.BNZ132-1; 0.001. The assay was performed in triplicate. […] Peripheral blood mononuclear cells were purified from the blood of a HAM-TSP patient and set up for a spontaneous proliferation assay as previously described36. The cellular proliferation was measured by the thymidine incorporation assay. The Y-axis represents the cpm values. Doses are on the X-axis; BNZ132-1, 3 and 0.3 μM. […] After 12 h incubation, OD450 was measured. […] Absorbance at 450 nm was read at 6 h after the addition of the WST-1 dye. […]

IKEFLQRFIHIVQSIINTS [BNZ132-1]
inhibition of IL-3-induced proliferation of PT-18β cells [1]: did not inhibit; also recorded: no inhibition; also recorded: no inhibition of non-γc cytokines
IC50 [2]: 150 nM
